Data on one compound can be found in patent publication US20030133918A1, “Methods for ex vivo propagation of somatic stem cells” (priority 2001, published 2003).

Experiment [1] has as its system Rat liver epithelial cells. The experiment in a line: Clonal derivation of rat liver epithelial cells by limiting dilution in 96-well plates. It counts as cell-based. The source says:
Using xanthosine (Xs) as a pharmacological agent to switch tissue stem cells from their default asymmetric cell kinetics program to exponential kinetics, we attempted to derive clonal rat liver epithelial stem cell lines that retained the ability to divide with asymmetric cell kinetics when Xs was removed. Rat liver epithelial cells found in the low-speed supernatant of centrifuged cells from in situ collagenase-perfused livers were clonally-derived by limiting dilution in 96-well plates in the absence or presence of added Xs (200 μM or 400 μM). Colonies with epithelial cell morphology arose with similar efficiency under both conditions (4.1±0.31 percent for both 480 Xs− wells and 960 Xs+ wells). The efficiency of establishing cell strains from these initial colonies was also similar, 50% (3/6) for colonies expanded in Xs-free medium and 65% (11/17) for colonies derived in Xs-containing medium. Each type of cell strain has now been maintained continuously in culture for >80 cell doublings. Early passage cells were cryo-preserved in liquid nitrogen and can be re-established in culture after thawing.

The test system of experiment [2] is bone marrow cells. The experiment in a line: Non-adherent cell production in long-term bone marrow culture. In kind it is cell-based, mice. As to conditions: Xs 1 mM, medium with 25% horse serum. Here is the method:
The non-adherent cell production rate (CPR) is defined as the total number of non-adherent cells produced in a single long-term culture normalized to days of culture (mean=95 days; range=66 to 132) and input cell number (range=5×10^6 to 20×10^6 cells). To develop long-term bone marrow cultures, freshly isolated bone marrow cells from tibia and femurs of 7-12 week-old female C57BL/6J mice were grown in culture medium supplemented with 25% horse serum.

The subject of experiment [3] is adherent cells from long-term bone marrow cultures. The experiment is described as follows: Soft agar colony formation by adherent cells from long-term bone marrow cultures. The following applies: adherent cells from cultures with 0.4 to 1.0 mM Xs. In kind it is cell-based, mice. The source says:
Because of the difficulties anticipated in cloning Xs-dependent cells from heterogenous long-term bone marrow cultures, we decided to adopt a soft agar culture strategy. It is well known that hematopoietic progenitor cells will form colonies when grown in semi-solid medium (Dexter et al., 1984). […] Instead, it simply reflects their natural ability to divide without anchorage. In many bone marrow cell studies, conditions are selected to induce bone marrow cell differentiation. Methyl-cellulose or soft agar supplemented with lineage-promoting growth factors are widely used experimental systems (Dexter et al., 1984). For ideal SACK, we wished to minimize stimuli for differentiation. Therefore, we used agar developed in routine horse serum-supplemented long-term culture medium, without any additional growth factor source, as the gel medium for our studies. We followed procedures developed for detecting anchorage-independent growth of transformed tumor cells.
Our plan was to evaluate SACK effects on soft agar colonies derived from fresh bone marrow. Therefore, we wished to relate the morphology of colonies that arose from fresh bone marrow cells to those that arose from LT-CFCs in long-term cultures. […] After 9 weeks of culture, when adherent cells were evaluated after washing and then removal with half-strength trypsin, only type II colonies were detected (frequency=19×10^−5). […]

Experiment [4] deals with freshly harvested murine bone marrow cells. The experiment in a line: Bone marrow colony formation in soft agar (fresh bone marrow). It counts as cell-based. Here is the method: The following numbers of freshly harvested murine bone marrow cells were plated in soft agar in replicates of 6 in 6-well plates: 1×10^5, 5×10^5, or 1×10^6. After 1-3 weeks, type I, II, and III colonies (see FIG. 2 for examples) were enumerated by phase microscopy.
Because of the difficulties anticipated in cloning Xs-dependent cells from heterogenous long-term bone marrow cultures, we decided to adopt a soft agar culture strategy. It is well known that hematopoietic progenitor cells will form colonies when grown in semi-solid medium (Dexter et al., 1984). […] In many bone marrow cell studies, conditions are selected to induce bone marrow cell differentiation. Methyl-cellulose or soft agar supplemented with lineage-promoting growth factors are widely used experimental systems (Dexter et al., 1984). For ideal SACK, we wished to minimize stimuli for differentiation. Therefore, we used agar developed in routine horse serum-supplemented long-term culture medium, without any additional growth factor source, as the gel medium for our studies. We followed procedures developed for detecting anchorage-independent growth of transformed tumor cells.
Given their associated HSC activity, LT-CFCs are predicted to divide with asymmetric cell kinetics. We evaluated whether Xs would increase the frequency of LT-CFC type I colonies in soft agar. Freshly prepared bone marrow cells were plated in soft agar developed in either control medium or medium containing 1 mM or 3 mM Xs.

For experiment [5], the system named is LT-CFCs. The experiment in a line: Serial transfer of LT-CFC-derived type I colonies in soft agar. In kind it is cell-based, murine. Here is the method: Type I colonies were isolated from soft agar with either control medium or medium containing Xs (data for 1 mM and 3 mM Xs are combined). Colonies were dispersed and then plated in a single 6-well in soft agar developed with culture medium containing the respective concentration of Xs. After 1-3 weeks, the number and type of secondary colonies were scored by phase microscopy. Bars indicate the mean percent of positive wells for each secondary colony type. Data for the control condition are the means of two independent experiments; data for Xs condition are the means of four independent experiments. We next evaluated whether LT-CFCs which produced type I colonies could be propagated in soft agar. Pasteur pipettes were used to isolate type I colonies from soft agar developed in either control medium or medium containing Xs. Isolated colonies were dispersed and their cells replated in their entirety in a single well of a 6-well plate in soft agar developed with the respective Xs concentration.

In experiment [6] the test system is p53-inducible model cells. The following applies: p53-inducible model cells (Sherley et al. 1995a, Liu et al. 1998a); cited from earlier work.

Turning to `O=c1[nH]c(=O)c2ncn([C@@H]3O[C@H](CO)[C@@H](O)[C@H]3O)c2[nH]1` [Xs, xanthosine], the “Efficiency with which colonies with epithelial cell morphology arose” value in experiment [1] (960 Xs+ wells, added Xs 200 μM or 400 μM, same value for 480 Xs− wells) was determined as 4.1±0.31%. Further, the “Efficiency of establishing cell strains from initial colonies” value in experiment [1] (colonies derived in Xs-containing medium (11/17), Xs-free 50% (3/6)) was 65%. Further, the “Increase in the rate of production of non-adherent, differentiated cells” value in experiment [2] stood at 80%. In experiment [3], the “More type I colonies than control cultures (average)” value is 35%. The “Increase in the frequency of type I colonies” value in experiment [4] (1 mM Xs, density of 1×10^5 bone marrow cells per 6-well) worked out at 1.5 fold. In addition, the “Mean fold increase in the frequency of type I colonies” value in experiment [4] (1 mM Xs, inputs of 5×10^5 or 1×10^6 cells) was 5.3 fold. Further, the “Mean fold increase in type I colony formation” value in experiment [4] (Xs 1 mM and 3 mM, range 1.2 to 6.2, p<0.017) came to 2.9 fold. Further, the “Occurrence of multiple secondary colonies, more common in the presence of Xs” value in experiment [5] (presence vs absence of Xs) is 5 times. Moreover, in experiment [5] (secondary colonies from type I colonies, 1 mM and 3 mM Xs combined), the “Cases of multiple secondary colonies that occurred in Xs-containing medium” value is on record as “Eighty-three”. The “Type I colonies more frequent than type II and III colonies” value in experiment [5] (secondary colonies in Xs-containing soft agar) is recorded as 50%. Besides, the “Efficiency of giving rise to type I secondary colonies versus control type I colonies” value in experiment [5] (type I colonies grown in Xs) is 4 fold. Besides, in experiment [6], the “Suppression of asymmetric cell kinetics” value is recorded as “can suppress the asymmetric cell kinetics”.
